pIC50: −log10 of the molar value. Activity calls are given as the source filed them.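 The calls were made as follows: active = mean IC50 for reducing PEG3 promoter reporter signal at or below a set limit, with IC50 above the limit in both counter screens; inactive = the rest, including counter screen hits.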
Experiments:
PEG-3 [1] = biological target: PEG-3 (UniProt Q6IN02); assay: Peg3 promoter luciferase inhibitors, potency, dose response, cell-based, HeLa, CREF/GAPDH counter-screen panel (AID 624167); conditions: HeLa PEG-Prom luciferase reporter, overnight, CREF/GAPDH counter-screens, mean of runs
PEG-3 [2] = assay: as above; conditions: HeLa PEG-Prom luciferase reporter, overnight, CREF/GAPDH counter-screens
[3] = run 1, dose range 1, individual replicate IC50 per panel
[4] = run 2, dose range 1, individual replicate IC50 per panel

Sequence of PEG-3 (UniProt Q6IN02) (Q6IN02 whole entry, looked up): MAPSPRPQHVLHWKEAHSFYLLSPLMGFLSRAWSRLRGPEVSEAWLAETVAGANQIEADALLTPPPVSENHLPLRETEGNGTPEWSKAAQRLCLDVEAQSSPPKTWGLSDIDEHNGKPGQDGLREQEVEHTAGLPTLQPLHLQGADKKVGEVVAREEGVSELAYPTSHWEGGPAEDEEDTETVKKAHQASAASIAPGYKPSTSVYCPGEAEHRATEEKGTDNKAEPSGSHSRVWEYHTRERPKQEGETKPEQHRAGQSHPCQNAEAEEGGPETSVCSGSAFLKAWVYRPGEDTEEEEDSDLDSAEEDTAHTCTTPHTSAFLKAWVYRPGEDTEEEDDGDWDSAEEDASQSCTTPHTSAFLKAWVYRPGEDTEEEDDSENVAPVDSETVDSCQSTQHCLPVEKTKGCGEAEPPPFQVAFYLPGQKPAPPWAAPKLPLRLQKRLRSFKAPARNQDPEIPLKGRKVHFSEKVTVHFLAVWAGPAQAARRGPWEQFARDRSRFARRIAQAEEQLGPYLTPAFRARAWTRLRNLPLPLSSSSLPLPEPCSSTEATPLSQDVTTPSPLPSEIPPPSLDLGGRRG

## CN(C)CCNC(=O)c1sc2nc(-c3ccccc3)cc(C(F)(F)F)c2c1N
PEG-3 [1]
  IC50: inactive
PEG-3 [2]; [3]
  pIC50: 4.69
PEG-3 [2]; [4]
  pIC50: 4.70

## COc1ccc(-c2nsc3c(N4CCCCC4C)ncnc23)cc1 (configuration not stated)
PEG-3 [1]
  pIC50: 4.80
PEG-3 [2]; [3]
  pIC50: 4.76
PEG-3 [2]; [4]
  pIC50: 4.85

## O=C(CSc1nc(Nc2ccccc2)nc(N2CCOCC2)n1)Nc1cc(Cl)ccc1O
PEG-3 [1]
  pIC50: 4.86
PEG-3 [2]; [3]
  pIC50: 4.89
PEG-3 [2]; [4]
  pIC50: 4.84

## CC(C)CC(N)c1csc(NC(=O)Nc2ccccc2C(C)(C)C)n1 (configuration not stated)
PEG-3 [1]
  IC50: inactive
PEG-3 [2]; [3]
  pIC50: 4.64
PEG-3 [2]; [4]
  pIC50: 4.74

## c1ccc(CCNc2nc(-c3ccncc3)nc3ccccc23)cc1
PEG-3 [1]
  pIC50: 4.88
PEG-3 [2]; [3]
  pIC50: 4.75
PEG-3 [2]; [4]
  pIC50: 5.07

## NC(N)=N/N=C/c1ccc(Cl)cc1Cl
PEG-3 [1]
  IC50: inactive
PEG-3 [2]; [3]
  pIC50: 4.63
PEG-3 [2]; [4]
  pIC50: 4.76

## COc1ccc(-n2ncc3c(N(C)C4CCCCC4)ncnc32)cc1
PEG-3 [1]
  IC50: inactive
PEG-3 [2]; [3]
  pIC50: 4.58
PEG-3 [2]; [4]
  pIC50: 4.36

## CC(C)n1cc(CN2CCC(C(=O)Nc3cccc(-c4cccc(Cl)c4)c3)CC2)cn1
PEG-3 [1]
  pIC50: 4.87
PEG-3 [2]; [3]
  pIC50: 4.76
PEG-3 [2]; [4]
  pIC50: 5.03

## CN(C(=O)OC(C)(C)C)c1ccc(-c2nc3ccccc3s2)cc1
PEG-3 [1]
  pIC50: 5.64
PEG-3 [2]; [3]
  pIC50: > 6.70
PEG-3 [2]; [4]
  pIC50: 5.35

## COc1ccc(-c2cc(C(F)F)n3ncc(C(=O)n4ccnc4C)c3n2)cc1
PEG-3 [1]
  pIC50: 4.90
PEG-3 [2]; [3]
  pIC50: 4.74
PEG-3 [2]; [4]
  pIC50: 5.16

## Cn1nnnc1Sc1ncnc2scc(-c3ccc4c(c3)OCO4)c12
PEG-3 [1]
  IC50: inactive
PEG-3 [2]; [3]
  pIC50: 4.46
PEG-3 [2]; [4]
  pIC50: 4.27

## O=C(c1ccco1)N1CCN(c2ncnc3c2[nH]c2ccc(Br)cc23)CC1
PEG-3 [1]
  IC50: inactive
PEG-3 [2]; [3]
  pIC50: 4.60
PEG-3 [2]; [4]
  pIC50: 4.62

## CN1OC[C@@H]2CN[C@H](c3ccc(-c4cc5ccccc5o4)cc3)C[C@@H]21
PEG-3 [1]
  pIC50: 4.73
PEG-3 [2]; [3]
  pIC50: 4.60
PEG-3 [2]; [4]
  pIC50: 4.90

## O=c1c2c3c(sc2nc(N2CCNCC2)n1CCc1ccccc1)CCCCC3
PEG-3 [1]
  IC50: inactive
PEG-3 [2]; [3]
  pIC50: 4.49
PEG-3 [2]; [4]
  pIC50: 4.76

## CCCCCCCCNCCS(=O)(=O)NCc1ccc(OC)cc1
PEG-3 [1]
  pIC50: 4.74
PEG-3 [2]; [3]
  pIC50: 4.75
PEG-3 [2]; [4]
  pIC50: 4.74

## CCCOc1ccc(NC(=O)CC2C(=O)N(CC)C(=S)N2CCCN2CCN(Cc3ccccc3)CC2)cc1 (configuration not stated)
PEG-3 [1]
  pIC50: 4.72
PEG-3 [2]; [3]
  pIC50: 4.69
PEG-3 [2]; [4]
  pIC50: 4.76

## COc1ccc(NC(=O)Nc2nc(C(N)C3CCCCC3)cs2)cc1 (configuration not stated)
PEG-3 [1]
  pIC50: 4.70
PEG-3 [2]; [3]
  pIC50: 4.75
PEG-3 [2]; [4]
  pIC50: 4.66

## CCN(CC)CCNc1cccc2sc3ccccc3c(=O)c12
PEG-3 [1]
  IC50: inactive
PEG-3 [2]; [3]
  pIC50: 4.74
PEG-3 [2]; [4]
  pIC50: 4.59

## COCCn1c(C)cc(C(=O)CSc2nnc3ccccn23)c1C
PEG-3 [1]
  pIC50: 4.82
PEG-3 [2]; [3]
  pIC50: 5.08
PEG-3 [2]; [4]
  pIC50: 4.66

## Cc1cc(C(=O)CN2C(=O)c3ccccc3S2(=O)=O)c(C)n1C(C)C
PEG-3 [1]
  pIC50: 4.92
PEG-3 [2]; [3]
  pIC50: 5.19
PEG-3 [2]; [4]
  pIC50: 4.75

## Cc1ccc(-n2cc(CNCCCn3ccnc3C)c(-c3ccc(F)cc3)n2)cc1
PEG-3 [1]
  pIC50: 4.89
PEG-3 [2]; [3]
  pIC50: 4.81
PEG-3 [2]; [4]
  pIC50: 4.98

## CCCN(CC(=O)Nc1cc(Cl)cc(Cl)c1)CC(=O)Nc1ccc(F)c(F)c1F
PEG-3 [1]
  IC50: inactive
PEG-3 [2]; [3]
  pIC50: 4.83
PEG-3 [2]; [4]
  pIC50: 4.36

## O=C1CSC(=S)N1Cc1cccnc1
PEG-3 [1]
  pIC50: 4.75
PEG-3 [2]; [3]
  pIC50: 4.55
PEG-3 [2]; [4]
  pIC50: 5.12

## CC(C)(c1ccccc1)c1ccc(OCC(O)CNC2CCN(Cc3ccccc3)CC2)cc1 (configuration not stated)
PEG-3 [1]
  pIC50: 4.80
PEG-3 [2]; [3]
  pIC50: 4.66
PEG-3 [2]; [4]
  pIC50: 5.03

## COc1ccc(Nc2oc(COc3ccccc3OC)nc2C#N)cc1
PEG-3 [1]
  IC50: inactive
PEG-3 [2]; [3]
  pIC50: 5.23
PEG-3 [2]; [4]
  pIC50: 4.40

## Cn1nnnc1Sc1ncnc2scc(-c3ccsc3)c12
PEG-3 [1]
  pIC50: 4.94
PEG-3 [2]; [3]
  pIC50: 4.83
PEG-3 [2]; [4]
  pIC50: 5.08

## CN(C)c1ccc(/C=N/NC(=O)c2nnn(-c3nonc3N)c2COc2ccc(F)cc2)cc1
PEG-3 [1]
  IC50: > 100 µM (inactive)
PEG-3 [2]; [3]
  pIC50: < 4.00
PEG-3 [2]; [4]
  pIC50: < 4.00

## COc1ccccc1CN(C)C(=O)c1cc(-c2cc(OC)c(OC)c(OC)c2)nc2ccccc12
PEG-3 [1]
  IC50: inactive
PEG-3 [2]; [3]
  pIC50: 4.72
PEG-3 [2]; [4]
  pIC50: 4.40

## CN(Cc1ccccc1F)C(=O)C(Cc1ccccc1)NC(=O)c1ccccc1 (configuration not stated)
PEG-3 [1]
  IC50: inactive
PEG-3 [2]; [3]
  pIC50: 4.49
PEG-3 [2]; [4]
  pIC50: 4.02

## COC(=O)c1ccc(CNC(=O)Cn2cnc3c(NCc4ccccc4)ncnc32)cc1
PEG-3 [1]
  IC50: inactive
PEG-3 [2]; [3]
  pIC50: 4.53
PEG-3 [2]; [4]
  pIC50: 4.81

## COc1ccc(-c2nc(NC(=O)c3n[nH]c(=O)c4ccccc34)sc2C)cc1
PEG-3 [1]
  IC50: inactive
PEG-3 [2]; [3]
  pIC50: 6.04
PEG-3 [2]; [4]
  pIC50: < 4.00

## CCC(C)NCCOCCOc1ccc(Cl)c2ccccc12 (configuration not stated)
PEG-3 [1]
  pIC50: 4.74
PEG-3 [2]; [3]
  pIC50: 4.73
PEG-3 [2]; [4]
  pIC50: 4.76

## Cn1cccc1/C=C1/C(=O)NC(=S)N(Cc2ccc(F)cc2)C1=O
PEG-3 [1]
  IC50: inactive
PEG-3 [2]; [3]
  pIC50: 4.50
PEG-3 [2]; [4]
  pIC50: 4.42

## Cc1cc(C)nc(NC(=O)c2c(F)c(F)c(F)c(C(=O)Nc3cc(C)cc(C)n3)c2F)c1
PEG-3 [1]
  pIC50: 4.70
PEG-3 [2]; [3]
  pIC50: 4.70
PEG-3 [2]; [4]
  pIC50: 4.71

From PubChem BioAssay AID624167 (Sanford-Burnham Center for Chemical Genomics, 2012)
